Reference: ChEMBL document CHEMBL4800728, “Data for DCP probe JNJ-54119936” (2021)

Assays:
[1] = target: Receptor-type tyrosine-protein kinase FLT3 (Homo sapiens) (UniProt P36888); test: Flt3 Invitrogen kinase panel; details: Compound concentration 10.0 uM
[2] = target: Casein kinase I isoform epsilon (Homo sapiens) (UniProt P49674); test: CK1epsilon Invitrogen kinase panel; details: Compound concentration 10.0 uM
[3] = target: Beta-3 adrenergic receptor (Homo sapiens) (UniProt P13945); details: Compound concentration 10.0 uM
[4] = target: 5-hydroxytryptamine receptor 6 (Homo sapiens) (UniProt P50406); details: Compound concentration 10.0 uM
[5] = target: Insulin receptor (Homo sapiens) (UniProt P06213); test: INSR Invitrogen kinase panel; details: Compound concentration 10.0 uM
[6] = target: Beta-2 adrenergic receptor (Homo sapiens) (UniProt P07550); details: Compound concentration 10.0 uM
[7] = target: Glucocorticoid receptor (Homo sapiens, UniProt P04150); test: (§1) GR In-house nuclear receptor screen
[8] = target: T1, Glucocorticoid receptor (Homo sapiens) (UniProt P04150); test: as §1; details: Compound concentration 3.0 uM
T1 sequence (whole entry): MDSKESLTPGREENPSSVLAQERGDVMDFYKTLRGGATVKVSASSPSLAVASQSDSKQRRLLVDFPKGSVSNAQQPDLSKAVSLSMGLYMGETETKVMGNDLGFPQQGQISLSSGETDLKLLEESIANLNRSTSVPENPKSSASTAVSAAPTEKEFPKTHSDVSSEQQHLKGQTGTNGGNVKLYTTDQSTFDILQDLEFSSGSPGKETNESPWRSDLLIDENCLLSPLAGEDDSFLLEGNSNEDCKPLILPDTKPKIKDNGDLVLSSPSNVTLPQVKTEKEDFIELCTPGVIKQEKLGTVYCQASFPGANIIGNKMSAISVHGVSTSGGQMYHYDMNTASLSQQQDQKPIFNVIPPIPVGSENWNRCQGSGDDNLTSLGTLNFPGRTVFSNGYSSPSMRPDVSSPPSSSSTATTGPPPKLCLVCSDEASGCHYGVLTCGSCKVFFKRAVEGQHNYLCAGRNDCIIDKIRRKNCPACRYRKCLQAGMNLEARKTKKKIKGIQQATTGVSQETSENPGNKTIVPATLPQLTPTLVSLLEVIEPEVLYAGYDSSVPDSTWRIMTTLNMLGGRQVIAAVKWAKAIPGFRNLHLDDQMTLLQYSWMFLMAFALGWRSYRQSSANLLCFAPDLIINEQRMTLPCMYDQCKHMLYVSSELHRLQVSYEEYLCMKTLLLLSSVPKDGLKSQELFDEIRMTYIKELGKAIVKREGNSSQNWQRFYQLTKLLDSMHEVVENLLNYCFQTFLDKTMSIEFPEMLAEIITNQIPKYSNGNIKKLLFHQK

[9] = target: 5-hydroxytryptamine receptor 2A (Homo sapiens) (UniProt P28223); details: Compound concentration 10.0 uM
[10] = target: D(3) dopamine receptor (Homo sapiens) (UniProt P35462); details: Compound concentration 10.0 uM
[11] = target: D(1B) dopamine receptor (Homo sapiens) (UniProt P21918); details: Compound concentration 10.0 uM
[12] = target: Kappa-type opioid receptor (Homo sapiens) (UniProt P41145); test: Kappa (KOP) (h) CEREP screen; details: Compound concentration 10.0 uM
[13] = target: Platelet-derived growth factor receptor beta (Homo sapiens) (UniProt P09619); test: PDGFRbeta Invitrogen kinase panel; details: Compound concentration 10.0 uM
[14] = target: Alpha-2C adrenergic receptor (Homo sapiens) (UniProt P18825); details: Compound concentration 10.0 uM
[15] = target: T2, Oxysterols receptor LXR-beta (Homo sapiens) (UniProt P55055); test: LXRbeta Indigo Bioscience nuclear receptor screen
T2 sequence (whole entry): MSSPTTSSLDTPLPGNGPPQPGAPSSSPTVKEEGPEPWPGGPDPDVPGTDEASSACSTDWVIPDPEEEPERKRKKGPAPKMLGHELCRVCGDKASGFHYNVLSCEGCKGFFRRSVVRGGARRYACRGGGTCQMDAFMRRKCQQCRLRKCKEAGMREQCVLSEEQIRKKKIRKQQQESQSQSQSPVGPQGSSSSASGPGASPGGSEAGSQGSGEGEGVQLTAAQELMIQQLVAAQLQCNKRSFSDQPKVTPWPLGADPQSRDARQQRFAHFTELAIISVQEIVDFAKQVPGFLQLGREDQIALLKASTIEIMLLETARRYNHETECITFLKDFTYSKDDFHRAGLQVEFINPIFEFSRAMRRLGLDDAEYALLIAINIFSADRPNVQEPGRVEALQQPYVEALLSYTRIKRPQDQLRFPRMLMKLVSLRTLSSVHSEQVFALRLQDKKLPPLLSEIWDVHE

[16] = target: Aurora kinase A (Homo sapiens) (UniProt O14965); test: Aurora_A Invitrogen kinase panel; details: Compound concentration 10.0 uM
[17] = target: T3, Peroxisome proliferator-activated receptor delta (Homo sapiens) (UniProt Q03181); test: PPARdelta Indigo Bioscience nuclear receptor screen
T3 sequence (whole entry): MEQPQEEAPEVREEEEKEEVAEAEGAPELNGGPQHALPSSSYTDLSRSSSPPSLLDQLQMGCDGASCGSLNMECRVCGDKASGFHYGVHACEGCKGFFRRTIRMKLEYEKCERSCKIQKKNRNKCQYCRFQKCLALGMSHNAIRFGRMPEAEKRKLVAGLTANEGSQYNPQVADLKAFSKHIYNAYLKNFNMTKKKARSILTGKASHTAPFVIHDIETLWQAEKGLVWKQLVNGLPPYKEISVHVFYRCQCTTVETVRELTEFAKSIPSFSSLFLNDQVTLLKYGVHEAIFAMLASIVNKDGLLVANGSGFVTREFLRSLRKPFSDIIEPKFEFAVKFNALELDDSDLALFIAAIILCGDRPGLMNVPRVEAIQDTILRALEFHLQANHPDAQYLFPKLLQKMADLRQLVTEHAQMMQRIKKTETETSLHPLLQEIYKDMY

[18] = target: Insulin-like growth factor 1 receptor (Homo sapiens) (UniProt P08069); test: IGF-1R Invitrogen kinase panel; details: Compound concentration 10.0 uM
[19] = target: D(1A) dopamine receptor (Homo sapiens) (UniProt P21728); details: Compound concentration 10.0 uM
[20] = target: Muscarinic acetylcholine receptor M3 (Homo sapiens) (UniProt P20309); details: Compound concentration 10.0 uM
[21] = target: 5-hydroxytryptamine receptor 1B (Homo sapiens) (UniProt P28222); details: Compound concentration 10.0 uM
[22] = target: Mu-type opioid receptor (Homo sapiens) (UniProt P35372); test: Mu (h) CEREP screen; details: Compound concentration 10.0 uM
[23] = target: RAC-alpha serine/threonine-protein kinase (Homo sapiens) (UniProt P31749); test: PKBalpha Invitrogen kinase panel; details: Compound concentration 10.0 uM
[24] = target: Peroxisome proliferator-activated receptor alpha (Homo sapiens) (UniProt Q07869); test: PPARalpha Indigo Bioscience nuclear receptor screen; details: Compound concentration 0.3 uM

RAC-alpha serine/threonine-protein kinase (Homo sapiens), sequence (P31749 whole entry): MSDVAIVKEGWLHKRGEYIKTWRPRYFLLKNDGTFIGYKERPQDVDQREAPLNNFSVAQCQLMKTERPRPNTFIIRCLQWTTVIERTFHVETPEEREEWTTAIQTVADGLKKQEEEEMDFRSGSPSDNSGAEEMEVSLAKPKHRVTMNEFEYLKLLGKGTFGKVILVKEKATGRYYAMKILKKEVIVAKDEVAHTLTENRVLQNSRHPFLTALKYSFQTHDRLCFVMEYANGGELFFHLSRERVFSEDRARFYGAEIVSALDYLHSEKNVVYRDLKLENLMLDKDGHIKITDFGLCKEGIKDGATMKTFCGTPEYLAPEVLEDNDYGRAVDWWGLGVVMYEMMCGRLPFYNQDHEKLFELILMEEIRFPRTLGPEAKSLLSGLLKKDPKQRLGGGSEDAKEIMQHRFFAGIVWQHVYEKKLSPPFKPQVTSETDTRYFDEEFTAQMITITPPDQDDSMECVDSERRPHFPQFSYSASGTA
5-hydroxytryptamine receptor 6 (Homo sapiens), sequence (P50406 whole entry): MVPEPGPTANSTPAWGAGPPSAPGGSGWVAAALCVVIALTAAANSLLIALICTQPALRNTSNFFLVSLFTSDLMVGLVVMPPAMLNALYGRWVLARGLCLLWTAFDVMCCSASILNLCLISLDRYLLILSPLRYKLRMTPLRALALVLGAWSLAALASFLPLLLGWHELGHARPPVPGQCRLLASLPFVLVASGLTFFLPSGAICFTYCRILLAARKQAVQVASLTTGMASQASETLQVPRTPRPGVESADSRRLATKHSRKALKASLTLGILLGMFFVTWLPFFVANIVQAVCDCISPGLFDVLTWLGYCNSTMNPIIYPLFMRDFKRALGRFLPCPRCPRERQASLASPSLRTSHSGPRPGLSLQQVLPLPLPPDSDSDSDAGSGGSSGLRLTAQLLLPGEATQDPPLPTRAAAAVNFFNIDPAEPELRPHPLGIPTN
D(1B) dopamine receptor (Homo sapiens), sequence (P21918 whole entry): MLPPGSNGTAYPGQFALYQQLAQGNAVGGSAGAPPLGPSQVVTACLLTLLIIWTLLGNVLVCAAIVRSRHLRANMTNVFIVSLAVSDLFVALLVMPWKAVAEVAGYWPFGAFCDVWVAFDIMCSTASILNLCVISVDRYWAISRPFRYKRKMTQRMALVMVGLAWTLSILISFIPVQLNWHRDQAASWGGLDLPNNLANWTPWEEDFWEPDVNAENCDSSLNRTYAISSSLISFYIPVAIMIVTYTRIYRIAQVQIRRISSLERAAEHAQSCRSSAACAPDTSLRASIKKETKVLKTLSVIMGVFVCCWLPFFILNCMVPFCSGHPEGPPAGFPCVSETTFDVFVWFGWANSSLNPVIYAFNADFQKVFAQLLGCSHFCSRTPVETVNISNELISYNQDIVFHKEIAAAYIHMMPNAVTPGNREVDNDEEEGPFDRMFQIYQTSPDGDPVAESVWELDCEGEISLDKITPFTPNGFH
5-hydroxytryptamine receptor 1B (Homo sapiens), sequence (P28222 whole entry): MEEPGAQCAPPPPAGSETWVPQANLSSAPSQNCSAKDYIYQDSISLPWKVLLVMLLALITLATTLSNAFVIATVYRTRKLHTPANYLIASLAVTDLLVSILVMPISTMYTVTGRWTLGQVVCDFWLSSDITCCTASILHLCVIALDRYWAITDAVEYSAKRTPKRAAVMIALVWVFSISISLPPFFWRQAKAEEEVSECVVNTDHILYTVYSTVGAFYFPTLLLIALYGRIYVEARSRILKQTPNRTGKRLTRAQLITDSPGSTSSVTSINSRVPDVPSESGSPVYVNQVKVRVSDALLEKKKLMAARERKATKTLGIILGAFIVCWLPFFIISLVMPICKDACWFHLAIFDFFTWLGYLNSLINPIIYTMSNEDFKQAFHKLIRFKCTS
Aurora kinase A (Homo sapiens), sequence (O14965 whole entry): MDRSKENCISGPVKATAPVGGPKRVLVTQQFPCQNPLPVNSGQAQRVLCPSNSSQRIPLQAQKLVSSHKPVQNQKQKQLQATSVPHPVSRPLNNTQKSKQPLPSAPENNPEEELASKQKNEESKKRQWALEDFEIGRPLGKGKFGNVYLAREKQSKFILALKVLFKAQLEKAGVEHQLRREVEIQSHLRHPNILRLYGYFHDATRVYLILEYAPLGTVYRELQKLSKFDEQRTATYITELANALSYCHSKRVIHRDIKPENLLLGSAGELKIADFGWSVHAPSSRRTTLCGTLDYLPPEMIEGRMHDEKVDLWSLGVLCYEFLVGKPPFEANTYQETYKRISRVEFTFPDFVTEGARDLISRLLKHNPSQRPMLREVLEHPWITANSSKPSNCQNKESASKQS
Platelet-derived growth factor receptor beta (Homo sapiens), sequence (P09619 whole entry): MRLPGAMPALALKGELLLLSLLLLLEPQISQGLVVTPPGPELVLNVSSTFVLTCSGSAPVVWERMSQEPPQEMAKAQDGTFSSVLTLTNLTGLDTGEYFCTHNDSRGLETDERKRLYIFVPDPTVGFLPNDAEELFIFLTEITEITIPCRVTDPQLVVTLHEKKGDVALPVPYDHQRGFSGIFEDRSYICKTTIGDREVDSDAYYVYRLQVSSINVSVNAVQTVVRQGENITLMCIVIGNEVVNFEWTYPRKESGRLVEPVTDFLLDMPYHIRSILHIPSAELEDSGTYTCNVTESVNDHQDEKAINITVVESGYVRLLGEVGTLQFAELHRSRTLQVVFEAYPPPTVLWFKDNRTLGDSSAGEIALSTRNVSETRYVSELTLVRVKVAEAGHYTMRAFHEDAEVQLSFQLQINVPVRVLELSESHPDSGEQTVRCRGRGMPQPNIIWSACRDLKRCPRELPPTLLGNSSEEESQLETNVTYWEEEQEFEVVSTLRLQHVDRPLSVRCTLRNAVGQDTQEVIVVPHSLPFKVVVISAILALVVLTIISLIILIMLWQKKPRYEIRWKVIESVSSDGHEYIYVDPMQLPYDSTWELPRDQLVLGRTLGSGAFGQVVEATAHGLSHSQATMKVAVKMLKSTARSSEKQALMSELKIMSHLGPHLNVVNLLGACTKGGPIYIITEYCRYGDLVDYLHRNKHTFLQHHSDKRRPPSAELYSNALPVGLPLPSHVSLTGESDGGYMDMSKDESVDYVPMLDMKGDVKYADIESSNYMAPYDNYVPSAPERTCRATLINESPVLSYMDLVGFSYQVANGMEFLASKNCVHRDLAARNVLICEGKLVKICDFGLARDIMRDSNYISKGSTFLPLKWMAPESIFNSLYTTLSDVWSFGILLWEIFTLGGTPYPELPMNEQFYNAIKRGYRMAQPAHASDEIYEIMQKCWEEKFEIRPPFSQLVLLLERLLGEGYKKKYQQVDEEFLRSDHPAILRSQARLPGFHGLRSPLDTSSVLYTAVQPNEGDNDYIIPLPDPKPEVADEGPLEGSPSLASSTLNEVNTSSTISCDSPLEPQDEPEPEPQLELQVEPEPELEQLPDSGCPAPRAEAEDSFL
Mu-type opioid receptor (Homo sapiens), sequence (P35372 whole entry): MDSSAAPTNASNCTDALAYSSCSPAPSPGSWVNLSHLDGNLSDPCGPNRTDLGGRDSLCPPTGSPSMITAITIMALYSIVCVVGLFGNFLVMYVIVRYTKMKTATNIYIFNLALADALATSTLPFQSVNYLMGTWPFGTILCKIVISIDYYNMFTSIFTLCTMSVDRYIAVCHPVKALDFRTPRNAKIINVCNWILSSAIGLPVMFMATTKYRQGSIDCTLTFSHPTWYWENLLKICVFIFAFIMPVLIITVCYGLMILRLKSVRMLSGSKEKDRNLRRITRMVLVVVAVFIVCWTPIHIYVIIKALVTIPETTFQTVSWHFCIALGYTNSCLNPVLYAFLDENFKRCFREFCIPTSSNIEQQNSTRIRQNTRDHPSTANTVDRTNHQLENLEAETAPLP
5-hydroxytryptamine receptor 2A (Homo sapiens), sequence (P28223 whole entry): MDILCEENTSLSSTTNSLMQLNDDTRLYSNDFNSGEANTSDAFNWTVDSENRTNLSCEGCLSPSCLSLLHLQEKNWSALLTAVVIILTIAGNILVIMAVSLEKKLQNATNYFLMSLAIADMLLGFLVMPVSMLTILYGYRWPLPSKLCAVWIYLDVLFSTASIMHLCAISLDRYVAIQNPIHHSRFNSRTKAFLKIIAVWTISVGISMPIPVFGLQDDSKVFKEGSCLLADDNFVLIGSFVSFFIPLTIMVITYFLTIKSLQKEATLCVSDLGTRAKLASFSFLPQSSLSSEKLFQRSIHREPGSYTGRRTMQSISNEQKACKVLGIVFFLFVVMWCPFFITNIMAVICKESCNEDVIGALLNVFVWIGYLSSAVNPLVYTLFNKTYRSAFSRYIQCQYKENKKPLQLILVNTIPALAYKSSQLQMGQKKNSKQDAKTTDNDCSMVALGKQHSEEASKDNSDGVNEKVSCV
Alpha-2C adrenergic receptor (Homo sapiens), sequence (P18825 whole entry): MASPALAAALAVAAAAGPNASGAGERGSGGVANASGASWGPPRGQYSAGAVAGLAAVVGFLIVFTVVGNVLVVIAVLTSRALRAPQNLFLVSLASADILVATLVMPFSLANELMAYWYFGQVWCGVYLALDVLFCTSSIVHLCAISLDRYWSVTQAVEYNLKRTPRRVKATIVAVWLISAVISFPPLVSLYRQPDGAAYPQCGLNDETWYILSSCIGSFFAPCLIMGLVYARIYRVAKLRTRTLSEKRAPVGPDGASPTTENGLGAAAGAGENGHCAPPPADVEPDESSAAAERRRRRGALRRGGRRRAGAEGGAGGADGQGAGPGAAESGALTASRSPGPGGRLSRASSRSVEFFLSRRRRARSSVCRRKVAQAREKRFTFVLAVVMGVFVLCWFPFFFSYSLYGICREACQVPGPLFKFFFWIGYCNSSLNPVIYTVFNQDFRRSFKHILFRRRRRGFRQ

An inhibition [1] of 4%, an inhibition [2] of 0% and an inhibition [3] of 39.4% were found for `COc1nc2ccc([C@@](O)(c3ccccc3)C3CCN(C(C)=O)CC3)cc2c(Cl)c1Cc1ccc(-n2cccn2)cc1` [JNJ-54119936] in this work. For the same compound, the inhibition [4] was 8.8%, the inhibition [5] was 3% and the inhibition [6] was 15.6%. For the same compound, the IC50 [7] was ~6 µM, the inhibition [8] was 13% and the inhibition [9] was 6.87%. The inhibition [10] was -2.36%, the inhibition [11] was 33.9% and the inhibition [12] was 12%. The inhibition [13] was 5%, the inhibition [14] was 39.8% and the inhibition ([15]; Compound concentration 0.3 uM) was 5.39%. The inhibition ([15]; Compound concentration 1.0 uM) was 8.98%, the inhibition ([15]; Compound concentration 3.0 uM) was 11% and the inhibition [16] was 9%. The inhibition ([17]; Compound concentration 0.3 uM) was -3.53%, the inhibition ([17]; Compound concentration 1.0 uM) was -5.27% and the inhibition ([17]; Compound concentration 3.0 uM) was 0.29%. The inhibition [18] was 6%, the inhibition [19] was 19.9% and the inhibition [20] was 0.49%. It also gave an inhibition [21] of 8.87%, an inhibition [22] of 15% and an inhibition [23] of -5%. For the same compound, the inhibition [24] was 1.34%.
